Source: US10189863B2, “5,6-dihydro-4H-benzo[b]thieno-[2,3-d]azepine derivatives” (PULMOCIDE LIMITED, priority 2014, dated 2019)

Tests used:
[1] = tested on: HEp2 cells; test: Cell viability: resazurin assay; assay type: cell-based, human; conditions: 5 days
Outline: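 HEp2 cells in 5% FBS DMEM exposed to compounds (0.5% DMSO final) for 5 days at 37 °C/5% CO2, then resazurin added for 6 h; fluorescence read at 545/590 nm. Percent viability loss calculated versus 0.5% DMSO vehicle, with increases shown as negative values; CC50 taken from concentration-response curves where appropriate.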

[2] = tested on: hRSV/A/Long; test: RSV infection in cotton rats: virus titre in lung (plaque assay); assay type: in vivo, Sigmodon hispidus cotton rats; conditions: intranasal
Description: (§1) RSV Infection in Cotton Rats
(§2) Male Sigmodon hispidus cotton rats between 6 and 8 weeks of age were infected with hRSV/A/Long (ATCC, Manassas, Va.; 10^5 pfu) in a volume of 0.1 mL of sucrose stabilizing media. Test compounds were dissolved in 100% DMSO (at 3.3, 10, 33 and 100 mg/mL), then diluted at 1:10 in isotonic saline to achieve 10% DMSO in all treatments. Formulations were then sonicated to produce suspensions. The resulting suspensions were administered intranasally (50 μL) by pipette 4 hr before infection (on day 0), and then on days 1, 2 and 3 post infection. Four days after RSV challenge, the animals were euthanised and the lungs were removed. The left lobe was used for viral titration via plaque assay and the lingular lobe for RSV/A/Long NS-1 qRT-PCR and cytokine qRT-PCR.
The supernatant of lung homogenates were diluted 1:10 and 1:100 in Eagle (E)-MEM. Confluent HEp2 monolayers in 24-well plates were infected in duplicate (50 μL of sample per well) starting with undiluted (neat) samples followed by diluted homogenates. After incubation for 1 hr (37° C./5% CO2) wells were overlaid with 0.75% methylcellulose medium and plates replaced in the 37° C. incubator. After incubation (for 4 days), the overlay was removed, the cells fixed with 0.1% crystal violet stain (for 1 hr) and then rinsed and air-dried. Plaques were counted and viral titers were expressed as plaque forming units per gram (pfu·g^−1) of tissue.

[3] = tested on: RSV NS-1 gene transcripts; test: RSV infection in cotton rats: RSV NS-1 gene transcripts in lung (qRT-PCR); assay type: in vivo, Sigmodon hispidus cotton rats; conditions: for RSV NS1 gene transcript % inhibition / RSV NS1 gene transcript (/β-actin), Median: intranasal
Description: as §1, §2
Total RNA was also extracted from homogenized lung tissue (RNeasy purification kit; Qiagen) and a sample (1 μg) was used to prepare cDNA using QuantiTect Reverse Transcription Kit (Qiagen). For real-time PCR reactions (RSV NS-1 and RANTES genes) the QuantiFast SYBR® Green PCR Kit (Qiagen) was used in a final volume of 25 μL, with final primer concentrations of 0.5 μM. Amplifications were performed on a Bio-Rad iCycler for 1 cycle of 95° C. for 3 min, followed by 40 cycles of 95° C. for 10 sec, 60° C. for 10 sec, and 72° C. for 15 sec. Baseline cycles and cycle threshold (Ct) were calculated by the iQ5 software in the PCR Base Line Subtracted Curve Fit mode. The standard curves were developed using serially diluted cDNA sample most enriched in the transcript of interest (e.g., lungs from day 4 post-primary RSV infection). The Ct values were plotted against log10 cDNA dilution factor. These curves were used to convert the Ct values obtained for different samples to relative expression units which were then normalized to the level of β-actin mRNA (“housekeeping gene”) expressed in the corresponding sample. The mRNA levels were expressed as the geometric mean±SEM for all animals in a group.

[4] = tested on: RANTES gene expression; test: RSV infection in cotton rats: RANTES gene transcripts in lung (qRT-PCR); assay type: in vivo, Sigmodon hispidus cotton rats
Description: as §1, §2
Total RNA was also extracted from homogenized lung tissue (RNeasy purification kit; Qiagen) and a sample (1 μg) was used to prepare cDNA using QuantiTect Reverse Transcription Kit (Qiagen). For real-time PCR reactions (RSV NS-1 and RANTES genes) the QuantiFast SYBR® Green PCR Kit (Qiagen) was used in a final volume of 25 μL, with final primer concentrations of 0.5 μM. […] Baseline cycles and cycle threshold (Ct) were calculated by the iQ5 software in the PCR Base Line Subtracted Curve Fit mode. […] The mRNA levels were expressed as the geometric mean±SEM for all animals in a group.

[5] = Drug Conc 10 mg/mL, day 4, LOQ 2.3

Q: `Cc1cnc(N2CC3(CCOCC3)C2)c(C(=O)Nc2ccc(C(=O)N3CCc4cc(C(=O)Nc5c(C)cccc5F)sc4-c4ccccc43)cc2)c1` [Example 5, N-(2-Fluoro-6-methylphenyl)-6-(4-(5-methyl-2-(7-oxa-2-azaspiro[3.5]nonan-2-yl)nicotinamido)benzoyl)-5,6-dihydro-4H-benzo[b]thieno[2,3-d]azepine-2-carboxamide] was tested. Which CC50 [1] did it give?
A: Its CC50 is > 14 µM.

Q: And the “Virus titre in lung, Geometric mean” value ([2]; Drug Conc 0.33 mg/mL, day 4)?
A: Its value is 4.7 log, PFU/lung.

Q: What about the “Virus titre in lung, Median” value ([2]; Drug Conc 0.33 mg/mL, day 4) of the same molecule?
A: The value was 4.7 log, PFU/lung.

Q: What about the “Virus titre in lung, Median” value ([2]; Drug Conc 1.0 mg/mL, day 4) of the same molecule?
A: The value was 4.5 log, PFU/lung.

Q: And the “Virus titre in lung, Median” value ([2]; Drug Conc 3.3 mg/mL, day 4, LOQ 2.3)?
A: The value was <2.3^2 log, PFU/lung.

Q: What about the “Virus titre in lung, Geometric mean” value [2, 5] of the same molecule?
A: Its value is <2.3^2 log, PFU/lung.

Q: What about the “Virus titre in lung, Median” value [2, 5] of the same molecule?
A: Its value is <2.3^2 log, PFU/lung.

Q: What about the “Effect on RSV NS-1 gene transcripts (in words)” value [3] of the same molecule?
A: Its value is “dose-dependent inhibition”.

Q: What about the “RSV NS1 gene transcript % inhibition” value ([3]; Drug Conc 0.33 mg/mL) of the same molecule?
A: Its value is 55%.

Q: And the “RSV NS1 gene transcript (/β-actin), Median” value ([3]; Drug Conc 0.33 mg/mL)?
A: The value was 2.0 /β-actin.

Q: What about the “RSV NS1 gene transcript % inhibition” value ([3]; Drug Conc 1.0 mg/mL) of the same molecule?
A: The value was 64%.

Q: What about the “RSV NS1 gene transcript (/β-actin), Median” value ([3]; Drug Conc 1.0 mg/mL) of the same molecule?
A: The value was 1.6 /β-actin.

Q: And the “RSV NS1 gene transcript % inhibition” value ([3]; Drug Conc 3.3 mg/mL)?
A: The value was 77%.

Q: What about the “RSV NS1 gene transcript (/β-actin), Median” value ([3]; Drug Conc 3.3 mg/mL) of the same molecule?
A: The value was 1.0 /β-actin.

Q: What about the “RSV NS1 gene transcript % inhibition” value ([3]; Drug Conc 10 mg/mL) of the same molecule?
A: Its value is 77%.

Q: What about the “RSV NS1 gene transcript (/β-actin), Median” value ([3]; Drug Conc 10 mg/mL) of the same molecule?
A: The value was 1.0 /β-actin.

Q: And the “Effect on RANTES transcripts in lung (in words)” value [4]?
A: The value was “dose-dependent inhibition”.
